Columns and labels:
Format in all cases: in vivo
[1] = test system: barnyardgrass (Echinochloa crus-galli); experiment: Test A postemergence, barnyardgrass; details: Postemergence, 0 to 100 scale (0 no effect, 100 complete control); for Plant response rating, Barnyardgrass: 125 g ai/ha; for Barnyardgrass plant response rating: 500 g ai/ha, visual injury vs untreated controls after approx. 10 days
In short: (§1)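 Postemergence ratings come from foliar sprays onto one- to two-leaf plants of 2 to 10 cm grown in loam/sand; preemergence ratings come from a directed spray onto the soil of newly seeded pots. Formulation was a surfactant-containing non-phytotoxic solvent blend.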

[2] = test system: Foxtail, Giant (giant foxtail, Setaria faberi); experiment: Test A preemergence, Foxtail, Giant; details: Preemergence; for Foxtail, Giant plant response rating: 125 g ai/ha, visual injury on 0 to 100 scale (0 no effect, 100 complete control), approximately 10 days; for Plant response rating, Foxtail, Giant: 500 g ai/ha, 0 to 100 scale (0 no effect, 100 complete control)
In short: as §1

[3] = test system: galium (catchweed bedstraw, Galium aparine); experiment: Test A postemergence, galium; details: Postemergence, 0 to 100 scale (0 no effect, 100 complete control); for Plant response rating, Galium: 125 g ai/ha; for Galium plant response rating: 500 g ai/ha, visual injury vs untreated controls after approx. 10 days
In short: as §1

corn (Zea mays) = experiment: Test A postemergence, corn; details: Postemergence, 0 to 100 scale (0 no effect, 100 complete control); for Plant response rating, Corn: 125 g ai/ha; for Corn plant response rating: 500 g ai/ha, visual injury vs untreated controls after approx. 10 days
In short: as §1

[4] = test system: Foxtail, Giant (giant foxtail, Setaria faberi); experiment: Test A postemergence, Foxtail, Giant; details: Postemergence, 0 to 100 scale (0 no effect, 100 complete control); for Plant response rating, Foxtail, Giant: 125 g ai/ha; for Foxtail, Giant plant response rating: 500 g ai/ha, visual injury vs untreated controls after approx. 10 days
In short: as §1

[5] = test system: ragweed (common ragweed, Ambrosia artemisiifolia); experiment: Test A preemergence, ragweed; details: Preemergence; for Ragweed plant response rating: 125 g ai/ha, visual injury on 0 to 100 scale (0 no effect, 100 complete control), approximately 10 days; for Plant response rating, Ragweed: 500 g ai/ha, 0 to 100 scale (0 no effect, 100 complete control)
In short: as §1

[6] = test system: wheat (Triticum aestivum); experiment: Test A postemergence, wheat; details: Postemergence, 0 to 100 scale (0 no effect, 100 complete control); for Plant response rating, Wheat: 125 g ai/ha; for Wheat plant response rating: 500 g ai/ha, visual injury vs untreated controls after approx. 10 days
In short: as §1

[7] = test system: Ryegrass, Italian (Italian ryegrass, Lolium multiflorum); experiment: Test A preemergence, Ryegrass, Italian; details: Preemergence; for Ryegrass, Italian plant response rating: 125 g ai/ha, visual injury on 0 to 100 scale (0 no effect, 100 complete control), approximately 10 days; for Plant response rating, Ryegrass, Italian: 500 g ai/ha, 0 to 100 scale (0 no effect, 100 complete control)
In short: as §1

kochia (Bassia scoparia) [8] = experiment: Test A preemergence, kochia; details: Preemergence; for Kochia plant response rating: 125 g ai/ha, visual injury on 0 to 100 scale (0 no effect, 100 complete control), approximately 10 days; for Plant response rating, Kochia: 500 g ai/ha, 0 to 100 scale (0 no effect, 100 complete control)
In short: as §1

[9] = test system: blackgrass (Alopecurus myosuroides); experiment: Test A postemergence, blackgrass; details: Postemergence, 0 to 100 scale (0 no effect, 100 complete control); for Plant response rating, Blackgrass: 125 g ai/ha; for Blackgrass plant response rating: 500 g ai/ha, visual injury vs untreated controls after approx. 10 days
In short: as §1

[10] = test system: Ryegrass, Italian (Italian ryegrass, Lolium multiflorum); experiment: Test A postemergence, Ryegrass, Italian; details: Postemergence, 0 to 100 scale (0 no effect, 100 complete control); for Plant response rating, Ryegrass, Italian: 125 g ai/ha; for Ryegrass, Italian plant response rating: 500 g ai/ha, visual injury vs untreated controls after approx. 10 days
In short: as §1

[11] = test system: barnyardgrass (Echinochloa crus-galli); experiment: Test A preemergence, barnyardgrass; details: Preemergence; for Barnyardgrass plant response rating: 125 g ai/ha, visual injury on 0 to 100 scale (0 no effect, 100 complete control), approximately 10 days; for Plant response rating, Barnyardgrass: 500 g ai/ha, 0 to 100 scale (0 no effect, 100 complete control)
In short: as §1

[12] = test system: pigweed (Amaranthus retroflexus); experiment: Test A postemergence, pigweed; details: Postemergence, 0 to 100 scale (0 no effect, 100 complete control); for Plant response rating, Pigweed: 125 g ai/ha; for Pigweed plant response rating: 500 g ai/ha, visual injury vs untreated controls after approx. 10 days
In short: as §1

kochia (Bassia scoparia) [13] = experiment: Test A postemergence, kochia; details: Postemergence, 0 to 100 scale (0 no effect, 100 complete control); for Plant response rating, Kochia: 125 g ai/ha; for Kochia plant response rating: 500 g ai/ha, visual injury vs untreated controls after approx. 10 days
In short: as §1

[14] = test system: ragweed (common ragweed, Ambrosia artemisiifolia); experiment: Test A postemergence, ragweed; details: Postemergence, 0 to 100 scale (0 no effect, 100 complete control); for Plant response rating, Ragweed: 125 g ai/ha; for Ragweed plant response rating: 500 g ai/ha, visual injury vs untreated controls after approx. 10 days
In short: as §1

[15] = test system: pigweed (Amaranthus retroflexus); experiment: Test A preemergence, pigweed; details: for Pigweed plant response rating: 125 g ai/ha, visual injury on 0 to 100 scale (0 no effect, 100 complete control), approximately 10 days; for Plant response rating, Pigweed: 500 g ai/ha, 0 to 100 scale (0 no effect, 100 complete control)
In short: as §1

Row | Structure (SMILES) | Plant response rating, Barnyardgrass [1] | Barnyardgrass plant response rating [1] | Foxtail, Giant plant response rating [2] | Plant response rating, Foxtail, Giant [2] | Plant response rating, Galium [3] | Galium plant response rating [3] | Plant response rating, Corn (corn (Zea mays)) | Corn plant response rating (corn (Zea mays)) | Plant response rating, Foxtail, Giant [4] | Foxtail, Giant plant response rating [4] | Ragweed plant response rating [5] | Plant response rating, Ragweed [5] | Plant response rating, Wheat [6] | Wheat plant response rating [6] | Ryegrass, Italian plant response rating [7] | Plant response rating, Ryegrass, Italian [7] | Kochia plant response rating (kochia (Bassia scoparia) [8]) | Plant response rating, Kochia (kochia (Bassia scoparia) [8]) | Plant response rating, Blackgrass [9] | Blackgrass plant response rating [9] | further results
1 | Cc1cc(C(F)(F)F)c(C(=O)N2CCCCC2)cc1NS(=O)(=O)C(F)(F)F [Compound 180] | 0 | 10 | 0 | 90 | 70 | 90 | 0 | 0 | 10 | 10 | 20 | 70 | 0 | 0 | 0 | 50 | 0 | 0 | 0 | 20 | Plant response rating, Ryegrass, Italian [10]: 0; Ryegrass, Italian plant response rating [10]: 0; Barnyardgrass plant response rating [11]: 0; Plant response rating, Barnyardgrass [11]: 80; Plant response rating, Pigweed [12]: 50; Pigweed plant response rating [12]: 70; Plant response rating, Kochia (kochia (Bassia scoparia) [13]): 10; Kochia plant response rating (kochia (Bassia scoparia) [13]): 40; Plant response rating, Ragweed [14]: 20; Ragweed plant response rating [14]: 70; Pigweed plant response rating [15]: 20; Plant response rating, Pigweed [15]: 70
2 | C#CCN(CC#C)C(=O)c1cc(N(S(=O)(=O)C(F)(F)F)S(=O)(=O)C(F)(F)F)c(C)cc1C [Compound 181] | 80 | 90 | 100 | 100 | 60 | 70 | 10 | 80 | 60 | 90 | 50 | 90 | 50 | 80 | 80 | 90 | 60 | 100 | 10 | 30 | Plant response rating, Ryegrass, Italian [10]: 70; Ryegrass, Italian plant response rating [10]: 90; Barnyardgrass plant response rating [11]: 90; Plant response rating, Barnyardgrass [11]: 100; Plant response rating, Pigweed [12]: 40; Pigweed plant response rating [12]: 80; Plant response rating, Kochia (kochia (Bassia scoparia) [13]): 30; Kochia plant response rating (kochia (Bassia scoparia) [13]): 80; Plant response rating, Ragweed [14]: 80; Ragweed plant response rating [14]: 90; Pigweed plant response rating [15]: 40; Plant response rating, Pigweed [15]: 80
3 | Cc1cc(Cl)c(C2=NOC(C)(C)C2)cc1NS(=O)(=O)C(F)(F)F [Compound 183] | 20 | 70 | 50 | 70 | 70 | 90 | 0 | 30 | 0 | 10 | 20 | 90 | 0 | 0 | 70 | 100 | 20 | 60 | 10 | 10 | Plant response rating, Ryegrass, Italian [10]: 0; Ryegrass, Italian plant response rating [10]: 0; Barnyardgrass plant response rating [11]: 90; Plant response rating, Barnyardgrass [11]: 100; Plant response rating, Pigweed [12]: 30; Pigweed plant response rating [12]: 30; Plant response rating, Kochia (kochia (Bassia scoparia) [13]): 10; Kochia plant response rating (kochia (Bassia scoparia) [13]): 50; Plant response rating, Ragweed [14]: 60; Ragweed plant response rating [14]: 80; Pigweed plant response rating [15]: 70; Plant response rating, Pigweed [15]: 80
4 | Cc1cc(Cl)c(C2=NOC(C)(C)C2)cc1N(S(=O)(=O)C(F)(F)F)S(=O)(=O)C(F)(F)F [Compound 184] | 20 | 50 | 30 | 90 | 80 | 90 | 0 | 0 | 0 | 0 | 80 | 90 | 0 | 0 | 30 | 50 | 0 | 0 | 0 | 20 | Plant response rating, Ryegrass, Italian [10]: 0; Ryegrass, Italian plant response rating [10]: 0; Barnyardgrass plant response rating [11]: 70; Plant response rating, Barnyardgrass [11]: 100; Plant response rating, Pigweed [12]: 20; Pigweed plant response rating [12]: 40; Plant response rating, Kochia (kochia (Bassia scoparia) [13]): 0; Kochia plant response rating (kochia (Bassia scoparia) [13]): 30; Plant response rating, Ragweed [14]: 40; Ragweed plant response rating [14]: 70; Pigweed plant response rating [15]: 70; Plant response rating, Pigweed [15]: 100

Reference: patent US20230278972A1, “SUBSTITUTED HALOALKYL SULFONANILIDE HERBICIDES” (FMC Corporation, priority 2020, published 2023)
